This is an account of results in patent US20250032676A1, “3D HYDROGEL COMPOSITE HAVING CANCER CELL APOPTOTIC EFFECT AND PREPARATION METHOD THEREOF” (DONGGUK UNIVERSITY INDUSTRY-ACADEMIC COOPERATION FOUNDATION, priority 2022, published 2025).

The subject of this assay is MDA-MB-231 breast cancer cells. Description: Cell killing by 6-MP released from hydrogel versus 6-MP at same concentration, WST-1 assay. Format: cell-based. Particulars: 24 h treatment, same 6-MP concentration; FIG. 12. The method, then: The apoptotic effect resulting from the release of anticancer agents was confirmed by comparing the effects of anticancer agents released due to chemical bond cleavage during photoirradiation with that of anticancer agents at the same concentration.
The three-dimensional hydrogels prepared according to Examples 1 to 3 to have a diameter of 8 mm and a height of 2 mm were stored together with 1 mL of PBS at 37° C. and 100 RPM. MDA-MB-231 breast cancer cells were inoculated at a density of 4×10^4 cells per well on a 48-well plate prepared with DMEM supplemented with 10% FBS and 1% penicillin/streptomycin and cultured at 37° C. for one day. After removal of the existing medium, cancer cells were treated with 50 μL of fresh medium and 150 μL of PBS containing released 6-MP, and incubated at 37° C. for 24 h. For the WST-1 assay, the cells were washed with PBS, treated with EZ-Cytox solution in each experimental group, incubated at 37° C. for 2 hours, and then measured by absorbance at 450 nm to confirm the cell apoptosis effect.

With `S=c1nc[nH]c2nc[nH]c12`, the “breast cancer cells died / killed” value is recorded as 70%.
The same measure for `Sc1ncnc2nc[nH]c12` [6-MP, 6-mercaptopurine]: 21%.
